PubChem BioAssay AID1963980 (Molecular Pharmacology Branch, DTP, NCI, 2024)
One block for each molecule: values may come before it.

Tested on: 475296-252-R-J1-PDC spheroid viability
Experiment: Anticancer human tumor 475296-252-R-J1-PDC patient-derived rectal carcinoma cell line growth inhibition [PI3K]
Details: spheroids with HUVEC and MSC; for IC50: curve of first compound; for viability, T/C: stronger effect = lower value
In short: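 Agents were dosed from a top concentration near clinical Cmax (otherwise 10 microM) in half-log decrements, alone or combined with PI3K inhibitors. The spheroids contain tumor cells plus endothelial (HUVEC) and MSC stroma; viability is measured.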

[1] = second compound 0.00316 µM, first compound 0.0316 µM
[2] = second compound 0.00316 µM, first compound 0.1 µM
[3] = second compound 0.00316 µM, first compound 0.316 µM
[4] = second compound 0.00316 µM, first compound 1 µM
[5] = second compound 0.00316 µM, first compound 3.16 µM
[6] = second compound 0.00316 µM, first compound 10 µM
[7] = second compound 0.01 µM, first compound 0.0316 µM
[8] = second compound 0.01 µM, first compound 0.1 µM
[9] = second compound 0.01 µM, first compound 0.316 µM
[10] = second compound 0.01 µM, first compound 1 µM
[11] = second compound 0.01 µM, first compound 3.16 µM
[12] = second compound 0.01 µM, first compound 10 µM
[13] = second compound 0.0316 µM, first compound 0.0316 µM
[14] = second compound 0.0316 µM, first compound 0.1 µM
[15] = second compound 0.0316 µM, first compound 0.316 µM
[16] = second compound 0.0316 µM, first compound 1 µM
[17] = second compound 0.0316 µM, first compound 3.16 µM
[18] = second compound 0.0316 µM, first compound 10 µM
[19] = second compound 0.1 µM, first compound 0.0316 µM
[20] = second compound 0.1 µM, first compound 0.1 µM
[21] = second compound 0.1 µM, first compound 0.316 µM
[22] = second compound 0.1 µM, first compound 1 µM
[23] = second compound 0.1 µM, first compound 3.16 µM
[24] = second compound 0.1 µM, first compound 10 µM
[25] = second compound 0.316 µM, first compound 0.0316 µM
[26] = second compound 0.316 µM, first compound 0.1 µM
[27] = second compound 0.316 µM, first compound 0.316 µM
[28] = second compound 0.316 µM, first compound 1 µM
[29] = second compound 0.316 µM, first compound 3.16 µM
[30] = second compound 0.316 µM, first compound 10 µM
[31] = second compound 1 µM, first compound 0.0316 µM
[32] = second compound 1 µM, first compound 0.1 µM
[33] = second compound 1 µM, first compound 0.316 µM
[34] = second compound 1 µM, first compound 1 µM
[35] = second compound 1 µM, first compound 3.16 µM
[36] = second compound 1 µM, first compound 10 µM
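Further: spheroids exposed to agents for seven days before readout.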

IC50 (second compound 0.00316 µM): > 10 µM | IC50 (second compound 0.01 µM): > 10 µM | IC50 (second compound 0.0316 µM): > 10 µM | IC50 (second compound 0.1 µM): > 10 µM | IC50 (second compound 0.316 µM): > 10 µM | IC50 (second compound 1 µM): > 10 µM
SMILES: CC(C)NCC(C(=O)N1CCN(c2ncnc3c2C(C)CC3O)CC1)c1ccc(Cl)cc1 (stereo not drawn) + CC(Nc1ccc2c(c1)OCCn1cc(N3C(=O)OCC3C(F)F)nc1-2)C(N)=O
viability, T/C [1]: 85.7% | viability, T/C [2]: 86.5% | viability, T/C [3]: 95.3% | viability, T/C [4]: 75.7% | viability, T/C [5]: 67.6% | viability, T/C [6]: 59.3% | viability, T/C [7]: 82.7% | viability, T/C [8]: 78.5% | viability, T/C [9]: 88.3% | viability, T/C [10]: 67.6% | viability, T/C [11]: 65.3% | viability, T/C [12]: 67.5% | viability, T/C [13]: 92.7% | viability, T/C [14]: 94.3% | viability, T/C [15]: 91.4% | viability, T/C [16]: 95.4% | viability, T/C [17]: 63.5% | viability, T/C [18]: 62.4% | viability, T/C [19]: 84.2% | viability, T/C [20]: 86.4% | viability, T/C [21]: 90.5% | viability, T/C [22]: 92.5% | viability, T/C [23]: 78.4% | viability, T/C [24]: 57.8% | viability, T/C [25]: 84.9% | viability, T/C [26]: 80% | viability, T/C [27]: 84.9% | viability, T/C [28]: 82.6% | viability, T/C [29]: 87.4% | viability, T/C [30]: 66.2% | viability, T/C [31]: 93.5% | viability, T/C [32]: 86.2% | viability, T/C [33]: 83.4% | viability, T/C [34]: 77.8% | viability, T/C [35]: 77% | viability, T/C [36]: 67.8%

IC50 (second compound 0.00316 µM): > 1 µM | IC50 (second compound 0.01 µM): > 1 µM | IC50 (second compound 0.0316 µM): > 1 µM | IC50 (second compound 0.1 µM): > 1 µM | IC50 (second compound 0.316 µM): > 1 µM | IC50 (second compound 1 µM): > 1 µM
SMILES: CCN1CCN(Cc2ccc(Nc3ncc(F)c(-c4cc(F)c5nc(C)n(C(C)C)c5c4)n3)nc2)CC1 + CC(Nc1ccc2c(c1)OCCn1cc(N3C(=O)OCC3C(F)F)nc1-2)C(N)=O
viability, T/C (second compound 0.00316 µM, first compound 0.00316 µM): 97.2% | viability, T/C (second compound 0.00316 µM, first compound 0.01 µM): 82.2% | viability, T/C [1]: 94% | viability, T/C [2]: 86.2% | viability, T/C [3]: 101% | viability, T/C [4]: 89.3% | viability, T/C (second compound 0.01 µM, first compound 0.00316 µM): 94.1% | viability, T/C (second compound 0.01 µM, first compound 0.01 µM): 87.8% | viability, T/C [7]: 95.6% | viability, T/C [8]: 85.1% | viability, T/C [9]: 89.5% | viability, T/C [10]: 87.9% | viability, T/C (second compound 0.0316 µM, first compound 0.00316 µM): 95.3% | viability, T/C (second compound 0.0316 µM, first compound 0.01 µM): 92.3% | viability, T/C [13]: 86.7% | viability, T/C [14]: 99.3% | viability, T/C [15]: 87.6% | viability, T/C [16]: 81.8% | viability, T/C (second compound 0.1 µM, first compound 0.00316 µM): 81.3% | viability, T/C (second compound 0.1 µM, first compound 0.01 µM): 111% | viability, T/C [19]: 86.6% | viability, T/C [20]: 86% | viability, T/C [21]: 94.3% | viability, T/C [22]: 71.8% | viability, T/C (second compound 0.316 µM, first compound 0.00316 µM): 85% | viability, T/C (second compound 0.316 µM, first compound 0.01 µM): 96.1% | viability, T/C [25]: 90.6% | viability, T/C [26]: 86.9% | viability, T/C [27]: 85% | viability, T/C [28]: 71.2% | viability, T/C (second compound 1 µM, first compound 0.00316 µM): 83.3% | viability, T/C (second compound 1 µM, first compound 0.01 µM): 75.5% | viability, T/C [31]: 80.5% | viability, T/C [32]: 76.9% | viability, T/C [33]: 79.1% | viability, T/C [34]: 64.2%

IC50 (second compound 0.00316 µM): > 10 µM | IC50 (second compound 0.01 µM): > 10 µM | IC50 (second compound 0.0316 µM): > 10 µM | IC50 (second compound 0.1 µM): > 10 µM | IC50 (second compound 0.316 µM): > 10 µM | IC50 (second compound 1 µM): 5.46 µM
SMILES: Cn1ncc(Cl)c1-c1cc(C(=O)NC(CN)Cc2cccc(F)c2)sc1Cl (stereo not drawn) + CC(Nc1ccc2c(c1)OCCn1cc(N3C(=O)OCC3C(F)F)nc1-2)C(N)=O
viability, T/C [1]: 87.7% | viability, T/C [2]: 68.7% | viability, T/C [3]: 76.2% | viability, T/C [4]: 63.4% | viability, T/C [5]: 65% | viability, T/C [6]: 67.6% | viability, T/C [7]: 105% | viability, T/C [8]: 78.6% | viability, T/C [9]: 74.1% | viability, T/C [10]: 73% | viability, T/C [11]: 73.8% | viability, T/C [12]: 70.5% | viability, T/C [13]: 92.6% | viability, T/C [14]: 88.1% | viability, T/C [15]: 63.7% | viability, T/C [16]: 67.4% | viability, T/C [17]: 52.8% | viability, T/C [18]: 60.5% | viability, T/C [19]: 90.7% | viability, T/C [20]: 104% | viability, T/C [21]: 86.1% | viability, T/C [22]: 69.3% | viability, T/C [23]: 59.4% | viability, T/C [24]: 52.9% | viability, T/C [25]: 90.7% | viability, T/C [26]: 94.3% | viability, T/C [27]: 85.7% | viability, T/C [28]: 69.5% | viability, T/C [29]: 72.8% | viability, T/C [30]: 51.5% | viability, T/C [31]: 92.3% | viability, T/C [32]: 79% | viability, T/C [33]: 84.1% | viability, T/C [34]: 76.1% | viability, T/C [35]: 62% | viability, T/C [36]: 36.6%

IC50 (second compound 0.00316 µM): > 10 µM | IC50 (second compound 0.01 µM): > 10 µM | IC50 (second compound 0.0316 µM): > 10 µM | IC50 (second compound 0.1 µM): > 10 µM | IC50 (second compound 0.316 µM): 6.42 µM | IC50 (second compound 1 µM): 3.52 µM
SMILES: Cn1nccc1Nc1nccc(-c2ccn(C(CO)c3ccc(Cl)c(F)c3)c(=O)c2)n1 (stereo not drawn) + CC(Nc1ccc2c(c1)OCCn1cc(N3C(=O)OCC3C(F)F)nc1-2)C(N)=O
viability, T/C [1]: 92.9% | viability, T/C [2]: 92.8% | viability, T/C [3]: 99.3% | viability, T/C [4]: 91.6% | viability, T/C [5]: 90.3% | viability, T/C [6]: 80.9% | viability, T/C [7]: 96.8% | viability, T/C [8]: 97.9% | viability, T/C [9]: 94.4% | viability, T/C [10]: 89.1% | viability, T/C [11]: 92.1% | viability, T/C [12]: 74% | viability, T/C [13]: 101% | viability, T/C [14]: 105% | viability, T/C [15]: 95.7% | viability, T/C [16]: 85.8% | viability, T/C [17]: 82.9% | viability, T/C [18]: 74.7% | viability, T/C [19]: 87.6% | viability, T/C [20]: 94.7% | viability, T/C [21]: 76.8% | viability, T/C [22]: 83.7% | viability, T/C [23]: 73.3% | viability, T/C [24]: 58.1% | viability, T/C [25]: 81.1% | viability, T/C [26]: 87.4% | viability, T/C [27]: 83.1% | viability, T/C [28]: 77.2% | viability, T/C [29]: 61.1% | viability, T/C [30]: 43.1% | viability, T/C [31]: 84.1% | viability, T/C [32]: 81% | viability, T/C [33]: 87.1% | viability, T/C [34]: 67.9% | viability, T/C [35]: 53.3% | viability, T/C [36]: 31.4%
